Results: ChEMBL document CHEMBL4011591, “Discovery and pharmacological evaluation of a novel series of adamantyl cyanoguanidines as P2X7 receptor antagonists” (Eur J Med Chem, 2017)

Legend:
P2X purinoceptor 7 [1] = molecular target: T1, P2X purinoceptor 7 (Homo sapiens, UniProt Q99572); assay: Antagonist activity at P2X7 receptor in human THP1 cells assessed as inhibition of BzATP-induced YO-PRO-1 Iodide uptake measured every 30 secs for 1 hr by fluorescence assay; assay type: cell-based
T1 sequence (Q99572 whole entry): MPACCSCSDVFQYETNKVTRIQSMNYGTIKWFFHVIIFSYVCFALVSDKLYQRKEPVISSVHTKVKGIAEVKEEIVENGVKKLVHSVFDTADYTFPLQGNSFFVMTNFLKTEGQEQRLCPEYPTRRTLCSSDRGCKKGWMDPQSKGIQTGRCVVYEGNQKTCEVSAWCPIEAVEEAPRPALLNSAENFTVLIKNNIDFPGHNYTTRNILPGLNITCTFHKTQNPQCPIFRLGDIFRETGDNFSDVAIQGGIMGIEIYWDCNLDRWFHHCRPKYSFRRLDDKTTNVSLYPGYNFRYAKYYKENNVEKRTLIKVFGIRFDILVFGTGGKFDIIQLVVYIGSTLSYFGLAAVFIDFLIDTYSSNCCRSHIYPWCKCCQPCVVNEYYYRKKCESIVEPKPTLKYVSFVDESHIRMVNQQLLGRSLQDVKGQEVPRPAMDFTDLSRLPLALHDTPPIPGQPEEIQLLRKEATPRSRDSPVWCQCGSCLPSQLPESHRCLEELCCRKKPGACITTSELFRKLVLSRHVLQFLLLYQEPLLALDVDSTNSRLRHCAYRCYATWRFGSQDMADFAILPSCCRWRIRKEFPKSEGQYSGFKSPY

Rattus norvegicus = assay: Intrinsic clearance in iv dosed rat; assay type: ADME, organism-based; details: in vivo
[2] = Half life in iv dosed rat; assay type: ADME, organism-based; details: in vivo
P2X purinoceptor 7 [3] = molecular target: T1, P2X purinoceptor 7; assay: Antagonist activity at P2X7 receptor in LPS-stimulated human THP1 cells assessed as inhibition of LPS/BzATP-induced IL-1beta release preincubated for 30 mins followed by BzATP addition measured after 30 mins by ELISA
[4] = molecular target: T2, P2X purinoceptor 7 (Homo sapiens) (UniProt Q99572); assay: Ratio of IC50 for P2X7 receptor in human THP1 cells assessed as inhibition of BzATP-induced YO-PRO-1 Iodide uptake to IC50 for P2X7 receptor in LPS-stimulated human THP1 cells assessed as inhibition of LPS/BzATP-induced IL-1beta release; assay type: cell-based
T2 sequence (whole entry): T1 sequence (Q99572 whole entry)

P2X purinoceptor 7 [5] = molecular target: T3, P2X purinoceptor 7 (Rattus norvegicus, UniProt Q64663); assay: Antagonist activity at rat P2X7 receptor expressed in 1321N1 cells assessed as inhibition of agonist-induced calcium flux pretreated for 3 mins followed by BzATP addition after 3 mins measured every 1 sec for 60 secs and at 5 secs interval throughout testing by Flou-4-AM dye based FLIPR assay; assay type: cell-based
T3 sequence (Q64663 whole entry): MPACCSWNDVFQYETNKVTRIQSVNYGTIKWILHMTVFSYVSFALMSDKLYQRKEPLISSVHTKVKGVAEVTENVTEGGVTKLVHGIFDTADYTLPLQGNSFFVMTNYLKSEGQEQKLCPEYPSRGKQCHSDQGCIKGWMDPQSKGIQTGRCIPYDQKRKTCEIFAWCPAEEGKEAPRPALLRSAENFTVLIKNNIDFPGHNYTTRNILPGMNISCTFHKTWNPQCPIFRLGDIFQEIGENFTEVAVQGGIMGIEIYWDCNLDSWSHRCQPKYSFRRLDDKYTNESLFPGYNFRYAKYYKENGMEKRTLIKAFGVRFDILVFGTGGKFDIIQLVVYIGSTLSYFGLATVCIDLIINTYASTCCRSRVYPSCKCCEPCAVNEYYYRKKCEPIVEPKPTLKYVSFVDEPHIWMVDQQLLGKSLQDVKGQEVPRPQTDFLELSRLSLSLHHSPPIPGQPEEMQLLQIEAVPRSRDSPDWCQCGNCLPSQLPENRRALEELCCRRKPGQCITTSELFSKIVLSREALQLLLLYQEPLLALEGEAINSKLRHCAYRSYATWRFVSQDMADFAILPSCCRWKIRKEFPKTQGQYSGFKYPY

| IC50 (P2X purinoceptor 7 [1]) | Compound | also measured |
| --- | --- | --- |
| 174 nM | N#C/N=C(\NCC12CC3CC(CC(C3)C1)C2)Nc1ccc(F)cc1 | – |
| 3020 nM | N#C/N=C(\NCCC12CC3CC(CC(C3)C1)C2)NCc1ccccc1 | – |
| – | O=C(CC12CC3CC(CC(C3)C1)C2)Nc1ccc2[nH]ncc2c1 | CL (Rattus norvegicus): 47 mL/min/kg; half-life [2]: 1 h |
| 51 nM | COc1ccccc1N/C(=N/C#N)NCC12CC3CC(CC(C3)C1)C2 | – |
| 851 nM | COc1cccc(CN/C(=N/C#N)NCC23CC4CC(CC(C4)C2)C3)c1 | – |
| 417 nM | N#C/N=C(\NCC12CC3CC(CC(C3)C1)C2)Nc1ccncc1 | – |
| 562 nM | COc1ccccc1CN/C(=N/C#N)NCC12CC3CC(CC(C3)C1)C2 | – |
| 18 nM | N#C/N=C(\NCC12CC3CC(CC(C3)C1)C2)Nc1cccc2ncccc12 | IC50 (P2X purinoceptor 7 [3]): 2 nM; Ratio IC50 [4]: 9 |
| > 10000 nM | COc1ccc(CN/C(=N/C#N)NCC23CC4CC(CC(C4)C2)C3)cc1 | – |
| 501 nM | N#C/N=C(/NCc1ccccc1F)NCC12CC3CC(CC(C3)C1)C2 | – |
| 4070 nM | N#C/N=C(/NCCc1ccccc1)NCC12CC3CC(CC(C3)C1)C2 | – |
| 2460 nM | N#C/N=C(/Nc1ccccc1)NC12CC3CC(CC(C3)C1)C2 | – |
| 447 nM | N#C/N=C(/NCc1ccncc1)NCC12CC3CC(CC(C3)C1)C2 | IC50 (P2X purinoceptor 7 [3]): 389 nM; Ratio IC50 [4]: 1.2 |
| – | C[C@H](N/C(=N/C#N)Nc1cccc2ncccc12)c1ccccc1 | IC50 (P2X purinoceptor 7 [5]): 9 to 11 nM |
| 407 nM | N#C/N=C(/NCc1ccccc1)NCC12CC3CC(CC(C3)C1)C2 | IC50 (P2X purinoceptor 7 [3]): 79 nM; Ratio IC50 [4]: 5.2 |
